Reference: US20130165417A1, “METHODS AND COMPOSITIONS FOR TREATING ACE2-RELATED DISORDERS” (UNIVERSITY OF FLORIDA RESEARCH FOUNDATION, priority 2010, published 2013)
“Also recorded” adds a separate entry of the source.

Columns and labels:
[1] = test system: Wistar Kyoto rats (WKYs); test: Direct blood pressure and heart rate measurement after IV bolus, WKY rats; format: in vivo, rat
Protocol: (§1) Male Wistar-Kyoto (WKY) rats and spontaneously hypertensive rats (SHRs) were purchased from Charles River Laboratories (Wilmington, Mass., USA). All procedures were performed in conformity with approved Institutional Animal Care and Use Committee protocols and University of Florida regulations.
(§2) Cannulation of the animals (WKY rats and SHRs) was performed 24 h prior to the start of the drug administration and direct blood pressure (BP) measurement. Animals were anesthetized with a mixture of ketamine, xylazine, and acepromazine (30, 6, and 1 mg/kg, respectively). The two types of the cannulae used were: 1) a polyethylene cannula (PE-50, Clay Adams) introduced into the carotid artery for direct BP measurements and 2) a silicone elastomer cannula (Helix Medical) introduced into the descending jugular vein for acute intravenous (IV) bolus injections of the drug. Both cannulae were filled with heparin saline (40 U/mL, Sigma), and sealed with stylets. The IV drug administration of diminazene aceturate (DIZE) (LKT laboratories, St. Paul, Minn., USA) and the dose-response curves in WKYs and SHRs were obtained in awake, freely moving animals after a 24 h recovery period. Doses of diminazene aceturate (DIZE) (0.04, […], 0.6, 1.25, 2.5, 5 and 10 mg/kg) were administered as an IV bolus via the jugular cannula, and BP data recording was interfaced by a PowerLab (ADlnstruments) signal transduction unit. The data analysis was done using the Chart program (PowerLab system).

[2] = molecular target: T1, ACE2 (Homo sapiens, UniProt Q9BYF1); test: ACE2 activity assay with fluorogenic peptide substrate; format: biochemical; parameters: purchased R&D Systems, Minneapolis, Minn; 933-ZN-10
Protocol: (§3) Recombinant ACE and ACE2 are obtained in purified form from R&D Systems, Minneapolis, Minn. (catalog ID: 929-ZN-10 and 933-ZN-10, respectively). Substrates for ACE (fluorogenic peptide V, Mca-[…](Dnp)-OH, catalog ID: ES005), and for ACE2 (fluorogenic peptide VI, Mca-YVADAPK(Dnp)-OH, catalog ID: ES007) are obtained from R&D systems. Dry compounds are resuspended in 100% DMSO to prepare 100 mM stock solutions, according to the amount of compound and its molecular weight. Gentle heating to 60-80° C. is carried out to assist their solubilization. Compounds are further diluted to 50 mM stocks if clearly difficult to dissolve.
(§4) Activity of ACE and ACE2 are measured with a Spectra Max Gemini EM Florescence Reader (Molecular Devices). The enzyme removes the c-terminal dinitrophenyl moiety that quenches the inherent fluorescence of its 7-methoxycoumain group, resulting in an increase in fluorescence in the presence of enzyme activity. Fluorescence is measured with excitation and emission spectra of 328 nm and 392 nm, respectively. Reaction mixtures are prepared in 100 μl volumes and different concentrations of compound are tested against 10 μM substrate. 10 nM enzyme in 100 mM NaCl, 75 mM Tris, 0.5 μM ZnCl2, at pH 7.4. Samples are read every 15-20 seconds for at least 30 minutes immediately after the addition of fluorogenic peptide substrate at 37° C. […]
Target sequence in this assay (Q9BYF1 18-740 limits assumed): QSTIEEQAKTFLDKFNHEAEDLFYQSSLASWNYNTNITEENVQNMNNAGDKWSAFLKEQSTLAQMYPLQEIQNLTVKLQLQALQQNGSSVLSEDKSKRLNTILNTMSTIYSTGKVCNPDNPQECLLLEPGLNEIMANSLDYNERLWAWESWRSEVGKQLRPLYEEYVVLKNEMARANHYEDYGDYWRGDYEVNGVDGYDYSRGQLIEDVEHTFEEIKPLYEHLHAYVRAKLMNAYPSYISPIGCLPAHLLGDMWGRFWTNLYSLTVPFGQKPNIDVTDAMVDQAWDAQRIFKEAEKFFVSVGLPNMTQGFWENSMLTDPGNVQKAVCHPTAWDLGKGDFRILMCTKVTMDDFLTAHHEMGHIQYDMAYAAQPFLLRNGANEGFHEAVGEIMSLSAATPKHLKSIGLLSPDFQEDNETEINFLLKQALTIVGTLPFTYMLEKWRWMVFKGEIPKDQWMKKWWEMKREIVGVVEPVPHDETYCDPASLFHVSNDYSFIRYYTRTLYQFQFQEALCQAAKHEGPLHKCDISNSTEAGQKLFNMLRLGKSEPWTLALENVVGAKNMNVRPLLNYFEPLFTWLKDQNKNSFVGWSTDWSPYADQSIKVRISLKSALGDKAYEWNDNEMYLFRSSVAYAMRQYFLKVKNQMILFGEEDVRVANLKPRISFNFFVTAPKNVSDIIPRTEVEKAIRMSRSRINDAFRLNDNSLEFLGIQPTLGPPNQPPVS

[3] = test system: monocrotaline (MCT) treated rats; test: Monocrotaline (MCT) treated rats, pulmonary hypertension; format: in vivo, rat
[4] = test system: models of pulmonary hypertension; test: Two models of pulmonary hypertension; format: in vivo
[5] = molecular target: T2, Recombinant ACE (Homo sapiens, UniProt P12821); test: ACE activity assay with fluorogenic peptide substrate; format: biochemical; conditions: FIG. 2
T2 construct: purchased R&D Systems, Minneapolis, Minn; 929-ZN-10
Protocol: as §3, §4

[6] = test system: Endothelial progenitor cells harvested from pulmonary hypertensive patients; test: Function of endothelial progenitor cells from pulmonary hypertensive patients; format: cell-based, human
From the text: Another important finding is the effect of DIZE on stem cell function. Endothelial progenitor cells harvested from pulmonary hypertensive patients are dysfunctional and have decreased ability to repair vascular damage induced by the disease.

[7] = test system: spontaneously hypertensive rats (SHRs); test: Direct blood pressure and heart rate measurement after IV bolus, SHRs; format: in vivo, rat
Protocol: as §1, §2

[8] = test system: myocardial infarction; test: Myocardial infarction model of cardiac disease; format: in vivo
[9] = molecular target: T1, ACE2; conditions: Donoghue et al. 2000, Tipnis et al. 2000; cited from earlier work
Target sequence in this assay (Q9BYF1 18-805): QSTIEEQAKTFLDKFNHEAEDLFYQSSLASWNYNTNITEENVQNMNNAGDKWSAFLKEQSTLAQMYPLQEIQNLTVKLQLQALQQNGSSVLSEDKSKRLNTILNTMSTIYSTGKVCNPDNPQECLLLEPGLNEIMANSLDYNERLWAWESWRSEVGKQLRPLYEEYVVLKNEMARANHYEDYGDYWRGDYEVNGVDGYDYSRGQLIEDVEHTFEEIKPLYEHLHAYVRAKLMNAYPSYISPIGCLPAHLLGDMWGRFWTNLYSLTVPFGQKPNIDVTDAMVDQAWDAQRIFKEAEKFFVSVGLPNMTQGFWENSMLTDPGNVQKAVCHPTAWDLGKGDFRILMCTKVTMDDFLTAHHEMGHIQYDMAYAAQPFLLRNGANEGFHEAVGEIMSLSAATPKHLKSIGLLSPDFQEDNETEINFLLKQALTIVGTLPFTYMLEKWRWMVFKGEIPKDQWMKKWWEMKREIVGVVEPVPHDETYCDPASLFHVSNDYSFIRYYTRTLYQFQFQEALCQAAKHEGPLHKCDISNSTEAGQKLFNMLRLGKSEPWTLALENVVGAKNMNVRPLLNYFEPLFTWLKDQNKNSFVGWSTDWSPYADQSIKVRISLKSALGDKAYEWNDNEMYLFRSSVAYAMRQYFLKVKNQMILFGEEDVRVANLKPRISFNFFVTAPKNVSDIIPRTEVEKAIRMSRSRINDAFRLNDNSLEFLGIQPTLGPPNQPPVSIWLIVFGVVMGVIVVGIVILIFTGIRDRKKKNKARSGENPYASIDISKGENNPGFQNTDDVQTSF

T2 sequence (P12821 30-1306): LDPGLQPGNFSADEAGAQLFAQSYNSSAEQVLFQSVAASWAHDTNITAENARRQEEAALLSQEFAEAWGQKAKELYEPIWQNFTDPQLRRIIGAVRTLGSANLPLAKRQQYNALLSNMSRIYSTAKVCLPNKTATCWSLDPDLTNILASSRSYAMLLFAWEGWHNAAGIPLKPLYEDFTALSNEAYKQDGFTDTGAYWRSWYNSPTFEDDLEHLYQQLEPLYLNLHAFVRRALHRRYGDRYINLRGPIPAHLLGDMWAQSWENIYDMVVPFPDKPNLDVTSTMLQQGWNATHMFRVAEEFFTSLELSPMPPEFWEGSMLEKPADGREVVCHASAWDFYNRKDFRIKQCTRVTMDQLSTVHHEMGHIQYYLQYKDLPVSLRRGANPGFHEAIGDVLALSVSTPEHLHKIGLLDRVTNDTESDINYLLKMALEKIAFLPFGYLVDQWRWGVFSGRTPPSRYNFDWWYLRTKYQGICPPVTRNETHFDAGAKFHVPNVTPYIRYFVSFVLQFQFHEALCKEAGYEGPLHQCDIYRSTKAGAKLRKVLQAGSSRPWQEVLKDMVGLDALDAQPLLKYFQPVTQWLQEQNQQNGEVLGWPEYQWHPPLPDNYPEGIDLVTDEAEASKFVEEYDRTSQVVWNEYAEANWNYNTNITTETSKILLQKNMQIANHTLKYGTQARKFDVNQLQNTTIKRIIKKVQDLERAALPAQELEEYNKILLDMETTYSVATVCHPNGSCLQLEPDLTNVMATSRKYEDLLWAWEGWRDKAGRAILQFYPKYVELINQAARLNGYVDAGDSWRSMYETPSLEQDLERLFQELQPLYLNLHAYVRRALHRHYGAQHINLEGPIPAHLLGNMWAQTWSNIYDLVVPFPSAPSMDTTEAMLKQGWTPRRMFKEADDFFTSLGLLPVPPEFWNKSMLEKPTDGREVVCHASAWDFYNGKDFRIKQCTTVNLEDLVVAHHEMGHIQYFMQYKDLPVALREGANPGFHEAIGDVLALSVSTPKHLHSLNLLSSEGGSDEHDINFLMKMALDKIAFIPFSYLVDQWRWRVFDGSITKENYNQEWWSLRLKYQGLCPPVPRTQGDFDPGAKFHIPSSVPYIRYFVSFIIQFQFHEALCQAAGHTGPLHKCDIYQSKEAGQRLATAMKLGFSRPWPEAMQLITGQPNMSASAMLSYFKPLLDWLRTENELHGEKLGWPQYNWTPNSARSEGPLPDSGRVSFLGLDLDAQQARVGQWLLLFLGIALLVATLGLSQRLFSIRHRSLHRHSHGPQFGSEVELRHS

## N=C(N)c1ccc(N=NNc2ccc(C(=N)N)cc2)cc1 [DIZE, 4,4′-(1-Triazene-1,3-diyl)bis(benzenecarboximidamide)]
[1]; WKY rats, 5 mg/kg intravenous, n=6
  reduction of mean arterial pressure (MAP): 50±9 mmHg
[1]; WKY, acute IV bolus
  effect on heart rate: does not affect the heart rate
[1]; WKYs, intravenous administration, result in words
  change in mean arterial pressure (MAP): transient and dose dependent decrease
[2]; observed with 50 μM
  maximal increase in ACE2 activity (Vmax): 2.3 fold
[2]; result in words
  effect on ACE2 activity: dose-dependent increase in ACE2 activity; also recorded: enhances specifically the ACE2 enzyme activity
[3]; FIG. 6
  MCT-induced right ventricular fibrosis: causes reversal
[3]; MCT treated rats, FIG. 4
  Right Ventricular Systolic Pressure (RVSP) and Right Ventricular Hypertrophy (RVH), prevention: prevents increase
[3]; MCT-treated rats, FIG. 5
  RVSP and RVH, reversal: reverses increases
[4]; administered after the development of pulmonary hypertension
  progression of pathophysiology: arrested
[4]; pretreatment
  development of the disorder: completely prevents the development of these disorders
  fibrosis: virtually absent
  pulmonary pressure: nearly normalized
[5]
  effect on ACE activity: increases ACE2 but not ACE activity
[6]
  endothelial progenitor cell dysfunction (ability to repair vascular damage): significantly improves this dysfunction
[7]; SHR, acute IV bolus
  effect on heart rate: does not affect the heart rate
[7]; SHRs, 5 mg/kg intravenous, n=6
  reduction of mean arterial pressure (MAP): 85±11 mmHg
[7]; SHRs, intravenous administration, result in words
  change in mean arterial pressure (MAP): transient and dose dependent decrease; also recorded: greater reduction in blood pressure in SHRs compared to WKY control rats
[8]; FIG. 3
  MI-induced cardiac dysfunctions: attenuates
[8]; pretreatment
  cardiac function: significantly improves cardiac function
  development of the disorder: completely prevents the development of these disorders
  infarct area: reduces infarct area

## C[C@H](CS)C(=O)N1CCC[C@H]1C(=O)O [captopril]
[9]
  effect on activity of ACE2: do not significantly affect
